Test results published in patent US11000491B2, “Amino-aryl-benzamide compounds and methods of use thereof” (HEPANOVA, INC., priority 2017, dated 2021).

Experiments:
Assay type in all cases: cell-based
SREBP-2 = SREBP-2 expression in cultured primary human hepatocytes; conditions: procedure of Example 6, read-out: SREBP-2 mRNA inhibition (EC50)
Outline: (§1)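 Primary human hepatocytes in culture exposed to a range of HPN-01 derivative concentrations; SREBP-1 and SREBP-2 mRNA expression then measured to assess inhibition.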

Huh7 cells = test: LD content in Huh7 cells pre-treated with insulin, Oil-Red-O staining, absorbance OD 540 nm; conditions: Huh7 cells, procedure of Example 3; read-out: LD content inhibition (EC50)
Outline: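 Huh7 cells, mock-treated or pre-treated with 1 mM insulin, were then exposed to compound at the indicated amounts. Lipid droplets stained with Oil Red O and quantified by absorbance at OD 540 nm.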

SREBP-1 = SREBP-1 expression in cultured primary human hepatocytes; conditions: procedure of Example 6, read-out: SREBP-1 mRNA inhibition (EC50)
Outline: as §1

Substance	EC50 (SREBP-2) [µM]	EC50 (Huh7 cells) [µM]	EC50 (SREBP-1) [µM]
butyl (E)-3-(6-amino-5-carbamoyl-4′-sulfamoyl-[1,1′-biphenyl]-3-yl)acrylate [HPN-01117]	8.24	1.15	6.99
decyl (E)-3-(6-amino-5-carbamoyl-4′-sulfamoyl-[1,1′-biphenyl]-3-yl)acrylate [HPN-01119]	4.17	1.08	2.71
furan-2-ylmethyl (E)-3-(6-amino-5-carbamoyl-4′-sulfamoyl-[1,1′-biphenyl]-3-yl)acrylate [HPN-01124]	3.25	0.67	1.86
methyl (E)-3-(6-amino-4′-(amino-(methylene)sulfinyl)-5-carbamoyl-[1,1′-biphenyl]-3-yl)acrylate [HPN-01114]	2.47	0.21	1.27
